Test results reported in paper PMC9738727, “Purification and Characterization of Novel Anti-MRSA Peptides Produced by Brevibacillus sp. SPR-20” (Molecules, 2022).
Ends that are not written are not given here.

How the values were obtained:
[1] = test system: MRSA isolate 2468; test: Agar well diffusion, arbitrary activity of purification fractions; format: cell-based, Staphylococcus aureus; conditions: 2-fold dilutions, AU per mg total protein
Experimental: Eight milliliters of the SPR-20 starter culture was added to 392 mL of Luria–Bertani (LB) broth (Titan Biotech Ltd., Rajasthan, India) in a 2 L flask. The culture was incubated at 30 °C and 150 rpm for 24 h before the crude supernatant was collected by centrifugation at 10,000× g and 4 °C for 15 min. Ammonium sulfate at 75% of saturation was added to the supernatant, and the precipitate was desalted by dialysis using a 3.5 kDa molecular weight cut-off (MWCO) SnakeSkin membrane (Pierce, Rockford, IL, USA) in the dialysis buffer (50 mM ammonium acetate pH 5.0 and 50 mM NaCl) at 4 °C for 16 h. The sample solution was purified by a HiTrap SP column under the elution gradient of buffer A (50 mM ammonium acetate pH 5.0 and 50 mM NaCl) and buffer B (50 mM ammonium acetate pH 5.0 and 1 M NaCl). The flow rate was set at 3 mL/min, and the wavelength was monitored at 214 nm. […] The peak was detected at 214 nm. […] The active fractions obtained from each purification step were prepared at different concentrations using 2-fold dilution, and the antimicrobial activity against MRSA isolate 2468 was determined by agar well diffusion assay.
The antimicrobial activity was measured by an agar well diffusion test with some modified methods. […] Each experiment was performed in three independent replicates, and the inhibition zone was measured and expressed as mean ± SD.

[2] = Circular dichroism secondary structure content (CONTINLL); format: physicochemical; conditions: CD, 25 °C
Experimental: The purified peptides (0.6 mg/mL) were dissolved in deionized water or 50 mM SDS and introduced into the circular dichroism (CD) spectrophotometer (JASCO Corporation, Tokyo, Japan). A 1 mm quartz cell was used for the measurement. The CD spectra were collected at 25 °C in the wavelength between 190 and 260 nm with a scanning speed of 100 nm/min, a bandwidth of 1.0 nm, and a data resolution of 0.1 nm. Each experiment was performed in three replications, and the background spectrum of the corresponding solvent was subtracted from the peptide spectrum. The content of the secondary structure of the peptides was calculated using the CONTINLL program.

[3] = test system: MRSA isolate 2468; test: Killing kinetics; format: cell-based, Staphylococcus aureus; conditions: for killing half-time / rate constant of cell death within 24 h: linear regression
Experimental: (§1) S. aureus TISTR 517 and MRSA isolate 2468 were cultured in CAMHB and standardized to obtain the cell number of 5 × 10^5 CFU/mL for initial treatment. […] The reactions were incubated at 37 °C, and then the total volume was spread on MH agar at specific time intervals (0–24 h). The plates were incubated at 37 °C for 24 h before colony count. […] The rate constant of cell death within 24 h and the killing half-time were calculated based on slope and linear regression relationship, respectively. Each experiment was performed in triplicate in 96-well plates. Significant differences (p-value < 0.05) were analyzed by two-way ANOVA and post hoc Tukey’s test for multiple comparisons between treated and non-treated samples.

[4] = test system: S. aureus TISTR 517; test: Killing kinetics; format: cell-based, Staphylococcus aureus; conditions: for killing half-time / rate constant of cell death within 24 h: linear regression; for time of eradication effect: strain not named in the sentence (tested bacteria)
Experimental: as §1

[5] = test system: MRSA isolate 2468; test: microbe, parasite or virus in culture; format: cell-based, Staphylococcus aureus; conditions: isolate 2468, 24 h
Experimental: (§2) The MIC and MBC of the purified peptides from SPR-20 were determined by broth microdilution assay following a standard guideline. S. aureus TISTR 517 and MRSA isolate 142, 1096, and 2468 as bacterial strains were cultured in MH agar at 37 °C for 18 h. […] The cells were then diluted to 5 × 10^6 CFU/mL using cation-adjusted Mueller Hinton broth (CAMHB). The diluted cell suspension (10 μL) was transferred to each well of a 96-well plate. The purified peptide in the total volume of 100 µL was added to each well to obtain the final concentrations between 0.5 and 64 µg/mL. The standard antibiotics (vancomycin and cefoxitin) (Sigma-Aldrich Co., St. Louis, MO, USA) and antibiotic-free samples were the positive and negative controls, respectively. CAMHB without tested bacteria was used as a blank. The 96-well plates were incubated at 37 °C for 24 h, and the experiment was performed in triplicate for each strain. […] Subsequently, 100 µL of each dilution was spread on MH agar and then incubated at 37 °C for 24 h.

[6] = test system: MRSA isolate 1096; test: microbe, parasite or virus in culture; format: cell-based, Staphylococcus aureus; conditions: isolate 1096, 24 h
Experimental: as §2

[7] = test system: MRSA isolate 142; test: microbe, parasite or virus in culture; format: cell-based, Staphylococcus aureus; conditions: isolate 142, 24 h
Experimental: as §2

[8] = test system: S. aureus TISTR 517 and MRSA strains; test: microbe, parasite or virus in culture; format: cell-based, Staphylococcus aureus; conditions: TISTR 517 and strains, 18 h
Experimental: as §2

[9] = test system: S. aureus TISTR 517; test: microbe, parasite or virus in culture; format: cell-based, Staphylococcus aureus; conditions: TISTR 517, 24 h
Experimental: as §2

With VVVNVLVKVLPPPVV [Peptide P1] the “Specific Activity” value [1] was 1694 AU/mg, the Random ([2]; 0.6 mg/mL in 50 mM SDS) was 34.6% and the Turn ([2]; 0.6 mg/mL in 50 mM SDS) was 10.6%. The α-Helix ([2]; 0.6 mg/mL in 50 mM SDS) was 25.5%, the β-Strand ([2]; 0.6 mg/mL in 50 mM SDS) was 29.3% and the Random ([2]; 0.6 mg/mL in H2O) was 32.4%. It also gave a Turn ([2]; 0.6 mg/mL in H2O) of 19.5%, a α-Helix ([2]; 0.6 mg/mL in H2O) of 4.1% and a β-Strand ([2]; 0.6 mg/mL in H2O) of 44.0%. The killing half-time ([3]; 1× MIC) was 47.75 h, the “rate constant of cell death within 24 h” value ([3]; 1× MIC) was -0.06 h⁻¹ and the killing half-time ([3]; 2× MIC) was 13.21 h. For the same sequence, the “rate constant of cell death within 24 h” value ([3]; 2× MIC) was -0.23 h⁻¹, the inhibition rate ([3]; 4× MIC, during 3–12 h) was 0.32 h⁻¹ and the killing half-time ([3]; 4× MIC, 95% CI 5.67 to 18.47) was 9.78 h. For the same sequence, the “rate constant of cell death within 24 h” value ([3]; 4× MIC, 95% CI −0.17 to −0.36) was -0.27 h⁻¹, the inhibition rate ([3]; after 6 h of treatment, 1× MIC) was 0.06 h⁻¹ and the inhibition rate ([3]; after 6 h of treatment, 2× MIC) was 0.24 h⁻¹. For the same sequence, the “reduction rate of viable cells” value ([3]; first 3 h) was 0.10 h⁻¹, the killing half-time ([4]; 1× MIC) was 25.36 h and the “rate constant of cell death within 24 h” value ([4]; 1× MIC) was -0.11 h⁻¹. The killing half-time ([4]; 2× MIC) was 11.08 h, the “rate constant of cell death within 24 h” value ([4]; 2× MIC) was -0.26 h⁻¹ and the “time of eradication effect” value ([4]; 2× MIC) was 24 h. The “reduction rate of viable cells” value ([4]; 3-24 h, 1× MIC) was 0.12 h⁻¹, the “reduction rate of viable cells” value ([4]; 3-24 h, 2× MIC) was 0.23 h⁻¹ and the “reduction rate of viable cells” value ([4]; 3-24 h, 4× MIC) was 0.31 h⁻¹. The killing half-time ([4]; 4× MIC, 95% CI 5.35 to 20.12) was 9.80 h, the “rate constant of cell death within 24 h” value ([4]; 4× MIC, 95% CI −0.16 to −0.38) was -0.27 h⁻¹ and the “time of eradication effect” value ([4]; 4× MIC) was 18 h. For the same sequence, the “reduction rate of viable cells” value ([4]; first 3 h, all peptide concentrations (1×, 2×, 4× MIC)) was 0.14 h⁻¹, the MBC [5] was 4 µg/mL and the MIC [5] was 2 µg/mL. The MBC [6] was 4 µg/mL, the MIC [6] was 2 µg/mL and the MBC [7] was 4 µg/mL. It also gave an MIC [7] of 2 µg/mL, an MIC [8] of 1.27 µM and an MBC [9] of 4 µg/mL. It also gave an MIC [9] of 2 µg/mL.
